From PubChem BioAssay (NCI)
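The compound was tested at five concentrations on cells cultured in 96-well plates, with a 48-hour exposure period. The concentration for full growth arrest is given as TGI.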

Experiments:
Assay in all cases: NCI tumour cell line growth inhibition, 48 h
786-0 renal = test system: 786-0 renal
A549 NSCLC = test system: A549 NSCLC
ACHN renal = test system: ACHN renal
CCRF-CEM leukemia = test system: CCRF-CEM leukemia
COLO 205 colon = test system: COLO 205 colon
DLD-1 colon = test system: DLD-1 colon
DMS 273 small cell lung = test system: DMS 273 small cell lung
EKVX NSCLC = test system: EKVX NSCLC
HCC-2998 colon = test system: HCC-2998 colon
HCT-116 colon = test system: HCT-116 colon
HCT-15 colon = test system: HCT-15 colon
HL-60(TB) leukemia = test system: HL-60(TB) leukemia
HOP-62 NSCLC = test system: HOP-62 NSCLC
HOP-92 NSCLC = test system: HOP-92 NSCLC
HT29 colon = test system: HT29 colon
IGROV1 ovarian = test system: IGROV1 ovarian
K-562 leukemia = test system: K-562 leukemia
KM12 colon = test system: KM12 colon
KM20L2 colon = test system: KM20L2 colon
LOX IMVI melanoma = test system: LOX IMVI melanoma
LXFL 529 NSCLC = test system: LXFL 529 NSCLC
M14 melanoma = test system: M14 melanoma
M19-MEL melanoma = test system: M19-MEL melanoma
MALME-3M melanoma = test system: MALME-3M melanoma
MOLT-4 leukemia = test system: MOLT-4 leukemia
NCI-H23 lung = test system: NCI-H23 lung
NCI-H460 lung = test system: NCI-H460 lung
NCI-H522 lung = test system: NCI-H522 lung
OVCAR-3 ovarian = test system: OVCAR-3 ovarian
OVCAR-4 ovarian = test system: OVCAR-4 ovarian
OVCAR-5 ovarian = test system: OVCAR-5 ovarian
OVCAR-8 ovarian = test system: OVCAR-8 ovarian
RPMI-8226 leukemia = test system: RPMI-8226 leukemia
RXF 393 renal = test system: RXF 393 renal
RXF-631 renal = test system: RXF-631 renal
SF-268 CNS = test system: SF-268 CNS
SF-295 CNS = test system: SF-295 CNS
SF-539 CNS = test system: SF-539 CNS
SK-MEL-2 melanoma = test system: SK-MEL-2 melanoma
SK-MEL-28 melanoma = test system: SK-MEL-28 melanoma
SK-MEL-5 melanoma = test system: SK-MEL-5 melanoma
SN12C renal = test system: SN12C renal
SNB-19 CNS = test system: SNB-19 CNS
SNB-78 CNS = test system: SNB-78 CNS
SW-620 colon = test system: SW-620 colon
TK-10 renal = test system: TK-10 renal
U251 CNS = test system: U251 CNS
UACC-257 melanoma = test system: UACC-257 melanoma
UACC-62 melanoma = test system: UACC-62 melanoma
UO-31 renal = test system: UO-31 renal
XF 498 CNS = test system: XF 498 CNS
A498 renal = test system: A498 renal
CAKI-1 renal = test system: CAKI-1 renal
DMS 114 small cell lung = test system: DMS 114 small cell lung
NCI-H226 lung = test system: NCI-H226 lung
SNB-75 CNS = test system: SNB-75 CNS
SR leukemia = test system: SR leukemia
HOP-18 NSCLC = test system: HOP-18 NSCLC
SK-OV-3 ovarian = test system: SK-OV-3 ovarian

## O=C(c1ccc(NCN2C(=O)CCC2=O)cc1)c1ccc(NCN2C(=O)CCC2=O)cc1
786-0 renal
  TGI: > 100 µM
A549 NSCLC
  TGI: > 100 µM
ACHN renal
  TGI: > 100 µM
CCRF-CEM leukemia
  TGI: > 100 µM
COLO 205 colon
  TGI: > 100 µM
DLD-1 colon
  TGI: > 100 µM
DMS 273 small cell lung
  TGI: > 100 µM
EKVX NSCLC
  TGI: > 100 µM
HCC-2998 colon
  TGI: > 100 µM
HCT-116 colon
  TGI: > 100 µM
HCT-15 colon
  TGI: > 100 µM
HL-60(TB) leukemia
  TGI: 49.5 µM
HOP-62 NSCLC
  TGI: > 100 µM
HOP-92 NSCLC
  TGI: > 100 µM
HT29 colon
  TGI: > 100 µM
IGROV1 ovarian
  TGI: > 100 µM
K-562 leukemia
  TGI: > 100 µM
KM12 colon
  TGI: > 100 µM
KM20L2 colon
  TGI: > 100 µM
LOX IMVI melanoma
  TGI: > 100 µM
LXFL 529 NSCLC
  TGI: > 100 µM
M14 melanoma
  TGI: > 100 µM
M19-MEL melanoma
  TGI: > 100 µM
MALME-3M melanoma
  TGI: > 100 µM
MOLT-4 leukemia
  TGI: > 100 µM
NCI-H23 lung
  TGI: > 100 µM
NCI-H460 lung
  TGI: > 100 µM
NCI-H522 lung
  TGI: > 100 µM
OVCAR-3 ovarian
  TGI: > 100 µM
OVCAR-4 ovarian
  TGI: > 100 µM
OVCAR-5 ovarian
  TGI: > 100 µM
OVCAR-8 ovarian
  TGI: > 100 µM
RPMI-8226 leukemia
  TGI: 43.9 µM
RXF 393 renal
  TGI: > 100 µM
RXF-631 renal
  TGI: > 100 µM
SF-268 CNS
  TGI: > 100 µM
SF-295 CNS
  TGI: > 100 µM
SF-539 CNS
  TGI: > 100 µM
SK-MEL-2 melanoma
  TGI: > 100 µM
SK-MEL-28 melanoma
  TGI: > 100 µM
SK-MEL-5 melanoma
  TGI: > 100 µM
SN12C renal
  TGI: > 100 µM
SNB-19 CNS
  TGI: > 100 µM
SNB-78 CNS
  TGI: > 100 µM
SW-620 colon
  TGI: > 100 µM
TK-10 renal
  TGI: > 100 µM
U251 CNS
  TGI: > 100 µM
UACC-257 melanoma
  TGI: 84.6 µM
UACC-62 melanoma
  TGI: > 100 µM
UO-31 renal
  TGI: > 100 µM
XF 498 CNS
  TGI: > 100 µM

## CNS(=O)(=O)NN(C)S(=O)(=O)c1ccc(Br)cc1
786-0 renal
  TGI: > 100 µM
A498 renal
  TGI: > 100 µM
A549 NSCLC
  TGI: > 100 µM
ACHN renal
  TGI: > 100 µM
CAKI-1 renal
  TGI: > 100 µM
CCRF-CEM leukemia
  TGI: > 100 µM
COLO 205 colon
  TGI: > 100 µM
DMS 114 small cell lung
  TGI: > 100 µM
DMS 273 small cell lung
  TGI: > 100 µM
EKVX NSCLC
  TGI: > 100 µM
HCC-2998 colon
  TGI: > 100 µM
HCT-116 colon
  TGI: > 100 µM
HCT-15 colon
  TGI: > 100 µM
HL-60(TB) leukemia
  TGI: > 100 µM
HOP-62 NSCLC
  TGI: > 100 µM
HT29 colon
  TGI: > 100 µM
IGROV1 ovarian
  TGI: > 100 µM
K-562 leukemia
  TGI: > 100 µM
KM12 colon
  TGI: > 100 µM
KM20L2 colon
  TGI: > 100 µM
LOX IMVI melanoma
  TGI: > 100 µM
LXFL 529 NSCLC
  TGI: > 100 µM
M14 melanoma
  TGI: > 100 µM
M19-MEL melanoma
  TGI: > 100 µM
MALME-3M melanoma
  TGI: > 100 µM
MOLT-4 leukemia
  TGI: > 100 µM
NCI-H226 lung
  TGI: > 100 µM
NCI-H23 lung
  TGI: > 100 µM
NCI-H522 lung
  TGI: > 100 µM
OVCAR-3 ovarian
  TGI: > 100 µM
OVCAR-4 ovarian
  TGI: > 100 µM
OVCAR-8 ovarian
  TGI: > 100 µM
RPMI-8226 leukemia
  TGI: > 100 µM
RXF 393 renal
  TGI: > 100 µM
RXF-631 renal
  TGI: > 100 µM
SF-295 CNS
  TGI: > 100 µM
SF-539 CNS
  TGI: > 100 µM
SK-MEL-2 melanoma
  TGI: > 100 µM
SK-MEL-5 melanoma
  TGI: > 100 µM
SN12C renal
  TGI: > 100 µM
SNB-19 CNS
  TGI: > 100 µM
SNB-75 CNS
  TGI: > 100 µM
SR leukemia
  TGI: > 100 µM
SW-620 colon
  TGI: > 100 µM
TK-10 renal
  TGI: > 100 µM
U251 CNS
  TGI: > 100 µM
UACC-257 melanoma
  TGI: > 100 µM
UACC-62 melanoma
  TGI: > 100 µM
UO-31 renal
  TGI: > 100 µM
XF 498 CNS
  TGI: > 100 µM

## COc1ccc2nc(NC(=O)C(=O)CC(=O)c3ccc(Cl)cc3)sc2c1
786-0 renal
  TGI: > 100 µM
A498 renal
  TGI: > 100 µM
A549 NSCLC
  TGI: > 100 µM
ACHN renal
  TGI: > 100 µM
CAKI-1 renal
  TGI: > 100 µM
CCRF-CEM leukemia
  TGI: > 100 µM
COLO 205 colon
  TGI: > 100 µM
DLD-1 colon
  TGI: > 100 µM
DMS 114 small cell lung
  TGI: > 100 µM
DMS 273 small cell lung
  TGI: > 100 µM
EKVX NSCLC
  TGI: > 100 µM
HCC-2998 colon
  TGI: > 100 µM
HCT-116 colon
  TGI: > 100 µM
HCT-15 colon
  TGI: > 100 µM
HL-60(TB) leukemia
  TGI: > 100 µM
HOP-18 NSCLC
  TGI: > 100 µM
HOP-62 NSCLC
  TGI: > 100 µM
HOP-92 NSCLC
  TGI: > 100 µM
HT29 colon
  TGI: > 100 µM
IGROV1 ovarian
  TGI: > 100 µM
KM12 colon
  TGI: > 100 µM
KM20L2 colon
  TGI: > 100 µM
LXFL 529 NSCLC
  TGI: > 100 µM
M14 melanoma
  TGI: > 100 µM
M19-MEL melanoma
  TGI: > 100 µM
MALME-3M melanoma
  TGI: > 100 µM
MOLT-4 leukemia
  TGI: > 100 µM
NCI-H226 lung
  TGI: > 100 µM
NCI-H23 lung
  TGI: > 100 µM
NCI-H460 lung
  TGI: > 100 µM
NCI-H522 lung
  TGI: > 100 µM
OVCAR-3 ovarian
  TGI: > 100 µM
OVCAR-4 ovarian
  TGI: 53.2 µM
OVCAR-8 ovarian
  TGI: > 100 µM
RXF 393 renal
  TGI: > 100 µM
SF-268 CNS
  TGI: > 100 µM
SF-295 CNS
  TGI: > 100 µM
SF-539 CNS
  TGI: 98.4 µM
SK-MEL-2 melanoma
  TGI: > 100 µM
SK-MEL-28 melanoma
  TGI: > 100 µM
SK-MEL-5 melanoma
  TGI: > 100 µM
SK-OV-3 ovarian
  TGI: > 100 µM
SN12C renal
  TGI: > 100 µM
SNB-19 CNS
  TGI: > 100 µM
SNB-75 CNS
  TGI: 99.1 µM
SNB-78 CNS
  TGI: > 100 µM
SR leukemia
  TGI: > 100 µM
SW-620 colon
  TGI: > 100 µM
TK-10 renal
  TGI: > 100 µM
U251 CNS
  TGI: > 100 µM
UACC-257 melanoma
  TGI: > 100 µM
UACC-62 melanoma
  TGI: > 100 µM
UO-31 renal
  TGI: > 100 µM
XF 498 CNS
  TGI: > 100 µM
